The source of these data is patent US10435371B2, “Multifunctional aminoquinoline therapeutic agent” (LOHOCLA RESEARCH CORPORATION, priority 2014, dated 2019).

In one experiment the target is V1A (Vasopressin) (Homo sapiens, UniProt P37288). Kind of experiment: PDSP radioligand binding.
The target of the next experiment is 5-HT2B (Serotonin Rs) (Homo sapiens, UniProt P41595). Kind of experiment: PDSP radioligand binding.
The test system of experiment [1] is rats treated with Complete Freund's Adjuvant. As to the kind of experiment: Reversal of CFA-induced neuropathic pain (von Frey mechanical pain threshold). The class given is in vivo, rat. Conditions: for Mechanical pain threshold, ratio to baseline: 1 hour.
Another experiment has as its target EP2 (Prostaglandin Rs) (Homo sapiens, UniProt P43116). As to the kind of experiment: PDSP radioligand binding. Conditions: Table 3, the 6th table r12c1; read-out: Ki, EP2 (lack of affinity).
A further experiment deals with Serotonin Transporter (Homo sapiens, UniProt P31645). As to the kind of experiment: PDSP radioligand binding.
Sequence of Serotonin Transporter (P31645 whole entry): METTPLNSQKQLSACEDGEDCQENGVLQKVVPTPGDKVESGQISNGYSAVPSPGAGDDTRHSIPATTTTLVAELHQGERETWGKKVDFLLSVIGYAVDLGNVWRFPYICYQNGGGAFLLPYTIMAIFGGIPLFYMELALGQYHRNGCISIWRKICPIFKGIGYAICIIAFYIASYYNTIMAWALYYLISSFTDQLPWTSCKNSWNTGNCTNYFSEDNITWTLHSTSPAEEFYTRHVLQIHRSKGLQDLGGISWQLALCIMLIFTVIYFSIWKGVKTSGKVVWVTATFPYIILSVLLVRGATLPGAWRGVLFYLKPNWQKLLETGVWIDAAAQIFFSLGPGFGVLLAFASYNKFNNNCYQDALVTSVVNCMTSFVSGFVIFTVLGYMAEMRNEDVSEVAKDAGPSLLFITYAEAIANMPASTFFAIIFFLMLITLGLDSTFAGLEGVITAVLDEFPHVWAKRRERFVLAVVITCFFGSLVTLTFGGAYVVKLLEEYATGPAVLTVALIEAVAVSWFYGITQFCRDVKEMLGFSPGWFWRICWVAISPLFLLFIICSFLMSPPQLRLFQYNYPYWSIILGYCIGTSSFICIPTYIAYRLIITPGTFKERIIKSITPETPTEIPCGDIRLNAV
The subject of experiment [2] is rats treated with Complete Freund's Adjuvant. Kind of experiment: Naltrindole reversal of the effect of DCUKA on CFA-induced neuropathic pain. Type of experiment: in vivo, rat. Conditions: DCUKA 50 mg/kg oral plus intraplantar saline, 2 days after CFA; FIG. 12. As for the experimental part: Rats were tested for baseline mechanical pain threshold (von Frey test) and given an intraplantar injection of Complete Freunds Adjuvant (CFA) in the left hind paw.

For experiment [3], the system named is rats treated with streptozotocin. As to the kind of experiment: Combination with aspirin, STZ-induced neuropathic pain (von Frey). The class given is in vivo, rat. Particulars: FIG. 16. As for the experimental part: After administration of streptozotocin (STZ) as described in Example 5, rats were tested for allodynia using a von Frey apparatus. Sixty minutes prior to testing, rats were divided into four groups. Group 1 received vehicle; group 2 received DCUKA; group 3 received aspirin; and group 4 received a combination of DCUKA and aspirin.

The target of experiment [4] is CaV1.2 (Voltage sensitive Ca** channel (L-type)) (Homo sapiens, UniProt Q13936). Kind of experiment: PDSP radioligand binding. Particulars: Table 3, the 6th table r22c0; read-out: Ki, CaV1.2 (lack of affinity).
The target of experiment [5] is β2 (Adrenergic Rs (beta adrenergic)) (Homo sapiens, UniProt P07550). Kind of experiment: PDSP radioligand binding.
Sequence of β2 (Adrenergic Rs (beta adrenergic)) (P07550 whole entry): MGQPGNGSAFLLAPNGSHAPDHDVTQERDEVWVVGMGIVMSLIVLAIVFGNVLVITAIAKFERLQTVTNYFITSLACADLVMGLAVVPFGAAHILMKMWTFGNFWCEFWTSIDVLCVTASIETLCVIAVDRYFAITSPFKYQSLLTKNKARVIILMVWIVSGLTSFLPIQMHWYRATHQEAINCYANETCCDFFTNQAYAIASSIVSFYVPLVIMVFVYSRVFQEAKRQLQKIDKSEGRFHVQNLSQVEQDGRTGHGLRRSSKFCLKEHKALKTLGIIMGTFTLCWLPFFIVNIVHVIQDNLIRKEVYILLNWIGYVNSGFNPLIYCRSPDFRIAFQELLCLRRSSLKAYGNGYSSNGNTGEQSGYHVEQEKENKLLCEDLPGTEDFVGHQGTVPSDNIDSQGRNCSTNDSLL
The target of another experiment is D1 (Dopamine Rs) (Homo sapiens, UniProt P21728). Kind of experiment: PDSP radioligand binding.
Sequence of D1 (Dopamine Rs) (P21728 whole entry): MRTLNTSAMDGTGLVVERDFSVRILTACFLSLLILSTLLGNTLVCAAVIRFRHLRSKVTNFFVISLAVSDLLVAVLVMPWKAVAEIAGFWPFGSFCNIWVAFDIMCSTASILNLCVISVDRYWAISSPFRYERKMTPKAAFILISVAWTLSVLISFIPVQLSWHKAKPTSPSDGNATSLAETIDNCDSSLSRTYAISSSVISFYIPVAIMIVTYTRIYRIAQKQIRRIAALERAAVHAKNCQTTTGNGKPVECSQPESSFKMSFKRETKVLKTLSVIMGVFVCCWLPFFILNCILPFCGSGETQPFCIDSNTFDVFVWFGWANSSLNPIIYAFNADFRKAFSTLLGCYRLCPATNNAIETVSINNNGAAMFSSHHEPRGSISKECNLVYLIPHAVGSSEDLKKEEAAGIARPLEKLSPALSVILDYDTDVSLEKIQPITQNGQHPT
The target of another experiment is 5-HT3 (Serotonin Rs) (Homo sapiens, UniProt P46098). As to the kind of experiment: PDSP radioligand binding.
Sequence of 5-HT3 (Serotonin Rs) (P46098 24-478): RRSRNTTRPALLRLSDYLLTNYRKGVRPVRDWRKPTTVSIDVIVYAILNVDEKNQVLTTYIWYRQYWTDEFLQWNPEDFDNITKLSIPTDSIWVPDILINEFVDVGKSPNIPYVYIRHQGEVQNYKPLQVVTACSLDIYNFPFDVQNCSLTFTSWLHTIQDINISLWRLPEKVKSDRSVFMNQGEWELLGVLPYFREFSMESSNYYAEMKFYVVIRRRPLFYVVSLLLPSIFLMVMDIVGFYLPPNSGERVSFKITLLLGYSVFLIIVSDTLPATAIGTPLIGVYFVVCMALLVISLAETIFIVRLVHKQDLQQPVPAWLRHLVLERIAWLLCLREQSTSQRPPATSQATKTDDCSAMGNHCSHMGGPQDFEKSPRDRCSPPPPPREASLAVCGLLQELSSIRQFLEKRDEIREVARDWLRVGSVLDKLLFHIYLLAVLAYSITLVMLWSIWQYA
In a further experiment the target is delta opiate receptor (Homo sapiens, UniProt P41143). Kind of experiment: cAMP accumulation, HeLa cells transfected with D1 receptor, DOR and AC5. Type of experiment: cell-based. Also noted: expressed in transfected cells. Particulars: HeLa cells, AC5. Background: Changes in cAMP serve as a functional read-out for many G protein-coupled receptors.
Sequence of delta opiate receptor (P41143 whole entry): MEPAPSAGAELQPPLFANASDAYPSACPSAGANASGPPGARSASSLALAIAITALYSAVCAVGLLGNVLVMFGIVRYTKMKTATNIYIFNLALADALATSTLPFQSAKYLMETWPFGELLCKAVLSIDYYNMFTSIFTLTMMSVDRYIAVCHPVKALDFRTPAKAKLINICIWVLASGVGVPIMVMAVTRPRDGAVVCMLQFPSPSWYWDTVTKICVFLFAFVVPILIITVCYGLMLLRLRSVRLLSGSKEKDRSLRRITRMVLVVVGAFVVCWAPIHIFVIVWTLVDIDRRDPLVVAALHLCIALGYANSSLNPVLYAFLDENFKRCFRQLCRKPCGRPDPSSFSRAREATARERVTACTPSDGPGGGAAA
In experiment [6] the target is β1 (Adrenergic Rs (beta adrenergic)) (Homo sapiens, UniProt P08588). Kind of experiment: PDSP radioligand binding.
Sequence of β1 (Adrenergic Rs (beta adrenergic)) (P08588 whole entry): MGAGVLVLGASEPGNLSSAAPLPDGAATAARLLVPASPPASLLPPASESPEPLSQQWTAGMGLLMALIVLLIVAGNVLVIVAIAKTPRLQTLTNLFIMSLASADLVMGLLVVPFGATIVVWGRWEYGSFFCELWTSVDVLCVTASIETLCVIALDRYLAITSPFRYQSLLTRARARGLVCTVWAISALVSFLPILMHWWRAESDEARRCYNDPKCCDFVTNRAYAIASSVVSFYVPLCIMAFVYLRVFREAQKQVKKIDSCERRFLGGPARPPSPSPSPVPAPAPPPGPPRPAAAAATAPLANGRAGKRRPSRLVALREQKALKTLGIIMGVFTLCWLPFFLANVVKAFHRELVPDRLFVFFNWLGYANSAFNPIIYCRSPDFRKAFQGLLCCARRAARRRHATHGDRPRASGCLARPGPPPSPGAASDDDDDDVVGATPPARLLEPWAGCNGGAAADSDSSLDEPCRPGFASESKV
The next experiment concerns the target D2 (Dopamine Rs) (Homo sapiens, UniProt P14416). Kind of experiment: PDSP radioligand binding.
The target of experiment [7] is BDZ site, GABA-A Receptor. As to the kind of experiment: PDSP radioligand displacement, [^3H]Flunitrazepam. Also noted: species or system rat. Particulars: read-out: Binding constant Ki, BDZ site, GABA-A Receptor.
Experiment [8] deals with M2 (Muscarinic Cholinergic Rs) (Homo sapiens, UniProt P08172). As to the kind of experiment: PDSP radioligand binding.
Sequence of M2 (Muscarinic Cholinergic Rs) (P08172 whole entry): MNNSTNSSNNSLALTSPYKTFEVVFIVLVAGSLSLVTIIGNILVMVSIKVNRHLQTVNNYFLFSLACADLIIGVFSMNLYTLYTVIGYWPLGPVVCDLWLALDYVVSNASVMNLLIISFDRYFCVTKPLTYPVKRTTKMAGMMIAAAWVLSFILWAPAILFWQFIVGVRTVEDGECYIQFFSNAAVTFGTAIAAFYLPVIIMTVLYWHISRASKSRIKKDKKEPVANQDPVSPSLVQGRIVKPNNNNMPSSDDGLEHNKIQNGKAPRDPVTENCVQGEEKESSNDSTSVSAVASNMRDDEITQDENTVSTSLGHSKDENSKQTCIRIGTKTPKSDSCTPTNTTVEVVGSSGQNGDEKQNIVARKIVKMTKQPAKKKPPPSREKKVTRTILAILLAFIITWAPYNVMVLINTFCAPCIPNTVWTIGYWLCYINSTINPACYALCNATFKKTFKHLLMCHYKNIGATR

Each structure is given as a SMILES string.

Sequence of D2 (Dopamine Rs) (P14416 whole entry): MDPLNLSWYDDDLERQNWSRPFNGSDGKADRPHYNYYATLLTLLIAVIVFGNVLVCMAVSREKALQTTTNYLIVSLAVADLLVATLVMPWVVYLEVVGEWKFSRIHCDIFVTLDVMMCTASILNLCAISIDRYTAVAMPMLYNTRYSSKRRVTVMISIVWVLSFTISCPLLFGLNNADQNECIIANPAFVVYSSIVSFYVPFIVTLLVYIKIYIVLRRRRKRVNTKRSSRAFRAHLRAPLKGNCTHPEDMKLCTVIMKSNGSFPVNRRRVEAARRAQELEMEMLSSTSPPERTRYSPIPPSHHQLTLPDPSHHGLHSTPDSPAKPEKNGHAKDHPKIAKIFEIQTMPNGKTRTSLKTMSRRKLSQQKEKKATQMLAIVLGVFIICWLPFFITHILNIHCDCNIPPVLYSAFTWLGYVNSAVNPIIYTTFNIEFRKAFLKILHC
Sequence of V1A (Vasopressin) (P37288 whole entry): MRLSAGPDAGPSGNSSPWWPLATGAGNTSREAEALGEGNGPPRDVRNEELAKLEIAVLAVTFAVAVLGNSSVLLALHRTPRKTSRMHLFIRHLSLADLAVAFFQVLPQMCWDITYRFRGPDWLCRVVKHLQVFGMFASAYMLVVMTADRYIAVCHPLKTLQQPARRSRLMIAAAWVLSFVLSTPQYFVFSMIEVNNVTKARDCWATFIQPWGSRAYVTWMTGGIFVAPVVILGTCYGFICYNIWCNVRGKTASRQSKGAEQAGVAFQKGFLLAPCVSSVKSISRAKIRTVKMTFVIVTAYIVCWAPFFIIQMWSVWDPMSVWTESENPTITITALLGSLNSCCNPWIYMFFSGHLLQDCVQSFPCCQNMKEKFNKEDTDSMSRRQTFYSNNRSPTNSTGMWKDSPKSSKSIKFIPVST
Sequence of EP2 (Prostaglandin Rs) (P43116 whole entry): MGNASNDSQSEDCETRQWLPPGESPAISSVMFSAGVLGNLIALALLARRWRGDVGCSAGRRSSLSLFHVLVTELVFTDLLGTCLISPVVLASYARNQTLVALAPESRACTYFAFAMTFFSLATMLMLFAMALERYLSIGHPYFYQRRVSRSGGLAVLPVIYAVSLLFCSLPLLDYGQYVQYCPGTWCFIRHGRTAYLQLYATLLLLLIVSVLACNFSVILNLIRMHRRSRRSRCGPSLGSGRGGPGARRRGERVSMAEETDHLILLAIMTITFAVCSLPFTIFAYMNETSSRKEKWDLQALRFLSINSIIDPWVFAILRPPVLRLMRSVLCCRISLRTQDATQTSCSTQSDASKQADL
Sequence of 5-HT2B (Serotonin Rs) (P41595 whole entry): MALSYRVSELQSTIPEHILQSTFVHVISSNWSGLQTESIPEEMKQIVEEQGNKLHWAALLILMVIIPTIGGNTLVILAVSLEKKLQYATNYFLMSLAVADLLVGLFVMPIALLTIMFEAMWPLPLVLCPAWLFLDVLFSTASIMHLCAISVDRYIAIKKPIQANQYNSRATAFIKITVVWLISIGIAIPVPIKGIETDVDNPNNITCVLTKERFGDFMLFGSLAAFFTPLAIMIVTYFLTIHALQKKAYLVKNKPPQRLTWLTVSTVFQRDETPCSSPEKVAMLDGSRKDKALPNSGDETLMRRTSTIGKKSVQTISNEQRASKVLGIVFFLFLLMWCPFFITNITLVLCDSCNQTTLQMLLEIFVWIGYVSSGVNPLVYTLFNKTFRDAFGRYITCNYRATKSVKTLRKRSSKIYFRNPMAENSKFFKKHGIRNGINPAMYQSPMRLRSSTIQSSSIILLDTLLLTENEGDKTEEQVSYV

`O=C(O)c1cc(NC(=O)N(c2ccccc2)c2ccccc2)c2c(Cl)cc(Cl)cc2n1` [DCUKA, 5,7-dichloro-4-(3,3-diphenylureido)quinoline-2-carboxylic acid]: the Ki (on V1A (Vasopressin); at 5-HT2B (Serotonin Rs); on EP2 (Prostaglandin Rs); on Serotonin Transporter; in experiment [4]; in [5]) was greater than 10 µM in each case. Also, the Ki (on D1 (Dopamine Rs); at 5-HT3 (Serotonin Rs); in [6]; at D2 (Dopamine Rs); in experiment [7]; in experiment [8]) was greater than 10 µM each time. The “Mechanical pain threshold, ratio to baseline” value in experiment [1] (48-60 h after CFA, 50 mg/kg oral, three experiments combined, FIG. 7) was “a level not significantly different from the baseline level”; in experiment [1] (48 h after CFA, 50 mg/kg, DCUKA n=17, BCUKA n=6, FIG. 8), “reversed the mechanical pain threshold to a level not significantly different from baseline”. Besides, the “Doses that significantly reversed the CFA-induced decrease of mechanical pain threshold” value in [1] (oral, 60 min, meta-analysis of five experiments, FIG. 9) is recorded as no less than 30 mg/kg. Moreover, the Mechanical pain threshold entry in experiment [2] is given as “increased the pain threshold back to baseline level”. The “Effect on allodynia, combination of DCUKA and aspirin” value in experiment [3] (DCUKA 12.5 mg/kg plus aspirin 25 mg/kg) was “completely reverse the hyper-responsiveness”. Moreover, the “Effect on allodynia, alone” value in experiment [3] (DCUKA 12.5 mg/kg, 60 min before test) is “do not have any significant effect on allodynia”. For the same compound, the “Character of action at the delta opiate receptor” value at delta opiate receptor was “agonist”. Further, the IC50 at delta opiate receptor (D1, DOR, 10 μM DA, DCUKA 0.25-20 μM, regression analysis, FIG. 3, read-out: IC50 for inhibition of cAMP accumulation) was 3.9 ± 0.47 µM.

Broadly, the Ki is the equilibrium dissociation constant of an inhibitor or competing ligand from its target. In general, IC50 refers to the point on the concentration scale where inhibition reaches its midpoint.
